Assay results taken from patent US20140018426A1, “FOOD OR BEVERAGE COMPOSITION FORTIFIED WITH THYRONAMINES AND/OR THYRONAMINE PRECURSORS” (priority 2009, published 2014).
Several values for one entry are separate records, joined by “and”; a condition that tells them apart may be missing. Equal values may be shown once. Read-outs that look alike come from different tables or passages of the source.

Experiments:
[1] = system: hypercholesterolemic patients; conditions: cited from earlier work; for decrease in body weight: 300 mg daily for 8 months
[2] = system: mice; conditions: cited from earlier work
[3] = system: rat working heart preparation; conditions: cited from earlier work
[4] = target: trace amine-associated receptor 1 (TAAR1) (Homo sapiens, UniProt Q96RJ0); conditions: cited from earlier work
trace amine-associated receptor 1 (TAAR1), sequence (Q96RJ0 whole entry, species assumed): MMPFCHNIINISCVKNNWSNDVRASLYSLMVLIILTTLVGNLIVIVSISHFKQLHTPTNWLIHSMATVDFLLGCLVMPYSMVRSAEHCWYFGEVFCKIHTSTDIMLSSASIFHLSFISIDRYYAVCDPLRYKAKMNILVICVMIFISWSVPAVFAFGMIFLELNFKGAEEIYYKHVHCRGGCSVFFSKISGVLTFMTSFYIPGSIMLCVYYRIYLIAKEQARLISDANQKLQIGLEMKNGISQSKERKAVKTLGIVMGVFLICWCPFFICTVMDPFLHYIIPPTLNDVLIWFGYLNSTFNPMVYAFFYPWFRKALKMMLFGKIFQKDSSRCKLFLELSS

[5] = target: alpha-2A adrenergic receptor (Homo sapiens, UniProt P08913); conditions: cited from earlier work
alpha-2A adrenergic receptor, sequence (P08913 whole entry): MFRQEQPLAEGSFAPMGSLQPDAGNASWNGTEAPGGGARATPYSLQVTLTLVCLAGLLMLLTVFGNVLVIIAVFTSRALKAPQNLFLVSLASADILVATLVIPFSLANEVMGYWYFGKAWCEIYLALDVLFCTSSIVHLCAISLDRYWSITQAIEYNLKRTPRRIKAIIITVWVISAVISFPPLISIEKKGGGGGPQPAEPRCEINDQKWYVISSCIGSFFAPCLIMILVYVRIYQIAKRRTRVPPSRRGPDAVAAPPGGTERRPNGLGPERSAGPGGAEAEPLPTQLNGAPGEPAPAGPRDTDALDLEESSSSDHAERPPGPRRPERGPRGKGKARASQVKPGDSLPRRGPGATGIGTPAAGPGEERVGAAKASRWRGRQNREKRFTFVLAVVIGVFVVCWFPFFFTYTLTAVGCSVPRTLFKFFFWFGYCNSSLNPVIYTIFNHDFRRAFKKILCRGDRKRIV

[6] = target: serotonin 5HT-2c receptor (Homo sapiens, UniProt P28335); conditions: cited from earlier work
serotonin 5HT-2c receptor, sequence (P28335 33-458): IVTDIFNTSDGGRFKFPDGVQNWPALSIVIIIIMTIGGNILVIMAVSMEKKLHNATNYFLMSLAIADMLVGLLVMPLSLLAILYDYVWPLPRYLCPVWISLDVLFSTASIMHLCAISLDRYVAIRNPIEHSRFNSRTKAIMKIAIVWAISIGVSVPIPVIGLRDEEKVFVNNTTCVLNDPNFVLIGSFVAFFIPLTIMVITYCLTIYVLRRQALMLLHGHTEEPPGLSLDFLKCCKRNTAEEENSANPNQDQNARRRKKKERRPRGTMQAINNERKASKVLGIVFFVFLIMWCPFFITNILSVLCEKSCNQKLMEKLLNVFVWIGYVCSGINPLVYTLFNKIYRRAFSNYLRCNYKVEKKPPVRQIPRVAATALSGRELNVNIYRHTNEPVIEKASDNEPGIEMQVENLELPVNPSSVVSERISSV

[7] = system: vesicular monoamine transporter; conditions: cited from earlier work
[8] = target: dopamine transporter (Homo sapiens, UniProt Q01959); conditions: cited from earlier work
dopamine transporter, sequence (Q01959 whole entry): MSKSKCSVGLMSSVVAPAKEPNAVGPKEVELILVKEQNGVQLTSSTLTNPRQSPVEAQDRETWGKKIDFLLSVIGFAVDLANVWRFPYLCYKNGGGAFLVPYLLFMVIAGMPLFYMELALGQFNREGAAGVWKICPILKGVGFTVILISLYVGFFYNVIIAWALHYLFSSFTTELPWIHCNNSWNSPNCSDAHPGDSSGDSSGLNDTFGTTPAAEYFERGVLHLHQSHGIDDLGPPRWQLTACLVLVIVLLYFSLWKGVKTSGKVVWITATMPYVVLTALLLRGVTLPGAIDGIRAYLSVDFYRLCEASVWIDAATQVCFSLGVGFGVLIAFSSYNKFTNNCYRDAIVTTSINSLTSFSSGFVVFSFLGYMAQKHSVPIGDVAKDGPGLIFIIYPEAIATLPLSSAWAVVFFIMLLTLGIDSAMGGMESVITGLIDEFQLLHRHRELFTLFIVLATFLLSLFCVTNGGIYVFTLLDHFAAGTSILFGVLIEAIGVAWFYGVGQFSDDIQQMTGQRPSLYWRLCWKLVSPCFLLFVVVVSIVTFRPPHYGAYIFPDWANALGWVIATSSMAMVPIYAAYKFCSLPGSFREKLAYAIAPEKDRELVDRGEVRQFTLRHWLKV

[9] = target: norepenephrin transporter (Homo sapiens, UniProt P23975); conditions: cited from earlier work
norepenephrin transporter, sequence (P23975 whole entry): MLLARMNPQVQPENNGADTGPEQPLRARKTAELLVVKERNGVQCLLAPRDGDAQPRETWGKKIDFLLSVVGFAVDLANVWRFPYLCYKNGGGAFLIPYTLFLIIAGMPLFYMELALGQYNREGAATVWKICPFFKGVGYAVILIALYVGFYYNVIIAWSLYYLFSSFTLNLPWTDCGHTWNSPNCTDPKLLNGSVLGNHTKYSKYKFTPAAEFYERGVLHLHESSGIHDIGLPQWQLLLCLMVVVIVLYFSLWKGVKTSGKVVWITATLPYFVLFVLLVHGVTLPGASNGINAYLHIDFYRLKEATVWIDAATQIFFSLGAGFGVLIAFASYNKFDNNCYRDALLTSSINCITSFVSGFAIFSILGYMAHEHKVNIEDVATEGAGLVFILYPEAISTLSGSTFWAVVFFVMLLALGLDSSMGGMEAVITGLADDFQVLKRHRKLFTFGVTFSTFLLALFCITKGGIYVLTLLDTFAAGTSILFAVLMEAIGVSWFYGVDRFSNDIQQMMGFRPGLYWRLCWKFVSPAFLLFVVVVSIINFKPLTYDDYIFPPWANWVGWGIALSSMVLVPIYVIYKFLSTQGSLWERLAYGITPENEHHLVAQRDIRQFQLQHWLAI

[10] = target: serotonin transporter (Homo sapiens, UniProt P31645); conditions: cited from earlier work
serotonin transporter, sequence (P31645 whole entry): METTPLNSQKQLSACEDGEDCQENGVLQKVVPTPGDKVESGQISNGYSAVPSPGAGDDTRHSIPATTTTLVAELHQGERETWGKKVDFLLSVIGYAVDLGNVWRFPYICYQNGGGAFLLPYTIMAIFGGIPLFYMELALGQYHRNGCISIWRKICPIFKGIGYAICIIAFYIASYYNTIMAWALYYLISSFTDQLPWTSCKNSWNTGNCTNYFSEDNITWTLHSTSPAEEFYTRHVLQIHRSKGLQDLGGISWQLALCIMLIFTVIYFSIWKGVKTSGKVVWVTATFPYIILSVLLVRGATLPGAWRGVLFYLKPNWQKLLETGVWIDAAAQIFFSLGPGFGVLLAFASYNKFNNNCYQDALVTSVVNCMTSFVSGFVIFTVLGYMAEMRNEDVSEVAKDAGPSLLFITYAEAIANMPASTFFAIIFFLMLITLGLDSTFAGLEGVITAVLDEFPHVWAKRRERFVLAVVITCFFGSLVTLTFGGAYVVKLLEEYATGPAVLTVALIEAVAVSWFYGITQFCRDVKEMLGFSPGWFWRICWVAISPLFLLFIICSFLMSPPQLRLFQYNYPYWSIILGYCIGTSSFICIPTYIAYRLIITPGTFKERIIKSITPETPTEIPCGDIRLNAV

[11] = system: middle cerebral artery occlusion (MCAO) stroke model in mice; conditions: cited from earlier work
[12] = system: mice; conditions: cited from earlier work; remark: listed apart in the source
[13] = system: Siberian hamsters (Phodopus sungorus); conditions: cited from earlier work
[14] = system: mice; conditions: single dose T1AM (normal 0.83); cited from earlier work
[15] = system: C57; assay: Serum triglycerides, C57 mice on Western Diet, daily oral T2; format: in vivo; conditions: C57, low and high dose T2
Excerpt: (§1) Mice in the study were fed a standard lab chow referred to as the “Western Diet.” The overall level of fat and the saturated nature of the fat are representative diets typical in the industrialized west that are linked to risk of cardiovascular disease in humans. The formula is used primarily with genetically manipulated rodent models that are susceptible to high cholesterol and cardiovascular disease. The diet may also be useful in diet-induced obesity, diabetes, and metabolic syndrome models. High cholesterol, obesity, and diabetes are each associated increased risk for cardiovascular disease. The composition of the Western Diet is shown below in Table 1.
(§2) C57 is a wild-type strain, LDLr+/− are a strain carrying one functional copy of the LDLr gene, and the LDLrO animals are total LDLr knockouts. The LDLr gene encodes for the LDL receptor protein, which is responsible for scavenging LDL with bound cholesterol from the blood and transporting it into cells. Both heterozygous and homozygous LDLr knockout animals develop very high serum cholesterol levels and are considered to be a good model for heterozygous and homozygous familial hypercholesterolemia in humans.
(§3) LDLr knockout animals have zero LDL receptor function. […] This effect was independent of weight loss.

[16] = system: LDLr0; assay: Serum triglycerides, LDLr knockout mice on Western Diet, daily oral T2; format: in vivo; conditions: low and high dose T2
Excerpt: as §1, §2, §3

[17] = system: LDLr+/−; assay: Serum triglycerides, LDLr+/− mice on Western Diet, daily oral T2; format: in vivo; conditions: low and high dose T2
Excerpt: as §1, §2, §3

[18] = Body weight, C57 mice on Western Diet, daily oral T2; format: in vivo
Excerpt: as §1, §2, §3

[19] = Body weight, LDLr knockout mice on Western Diet, daily oral T2; format: in vivo
Excerpt: as §1, §2, §3

[20] = Body weight, LDLr+/− mice on Western Diet, daily oral T2; format: in vivo; set-up: Body weight, Ave: unit not given here
Excerpt: as §1, §2, §3

[21] = system: C57; assay: Blood Sugar (serum glucose), C57 mice on Western Diet, daily oral T2; format: in vivo; conditions: for Blood Sugar, individual animal: C57 mice, Western Diet
Excerpt: as §1, §2, §3

[22] = system: LDLr0; assay: Blood Sugar (serum glucose), LDLr knockout mice on Western Diet, daily oral T2; format: in vivo; conditions: for Blood Sugar, individual animal: LDLr0 mice, Western Diet
Excerpt: as §1, §2, §3

[23] = system: LDLr+/−; assay: Blood Sugar (serum glucose), LDLr+/− mice on Western Diet, daily oral T2; format: in vivo; conditions: for Blood Sugar, individual animal: LDLr+/− mice, Western Diet
Excerpt: as §1, §2, §3

[24] = system: thyroid receptor homodimer; conditions: in contrast to T3; cited from earlier work
[25] = system: TR β gene expression; conditions: cited from earlier work
[26] = system: rats; conditions: 250 mcg/kg p.o. q.d. for 30 days, compared to controls; cited from earlier work
[27] = system: growth hormone gene expression; conditions: cited from earlier work
[28] = system: TR α1, β1 and β2; conditions: in vitro studies; cited from earlier work

## N[C@H](Cc1cc(I)c(Oc2ccc(O)cc2)c(I)c1)C(=O)O [3,5-D-T2]
[1]; 300 mg daily
  patients with coronary artery disease with increased anginal symptoms: 7 of 13
[1]; at 20 weeks, 300 mg daily
  total serum cholesterol decrease: 20%
[1]; euthyroid subjects
  decrease in body weight: 5%
[1]; human, in vivo
  effect of doses of less than 250 mg/day: ineffective
[1]; hypothyroid patients
  decrease in body weight: 8%
[1]; increase from 76, 300 mg daily
  mean heart rate on treatment: 88 beats per minute

## NCCc1ccc(Oc2ccc(O)cc2)cc1 [T0AM, thyronamine]
[2]; similar results reported as for T1AM
  potency on body temperature compared with T1AM: less potent
[3]; rat working heart preparation
  potency as compared to T1AM (fold less potent): about 10 fold

## NCCc1ccc(Oc2ccc(O)cc2)c(I)c1 [T1AM, 3-iodothyronamine]
[4]
  TAAR1 activity: potent agonist
[5]
  alpha-2A adrenergic receptor activity: agonist
[6]
  serotonin 5HT-2c receptor activity: agonist
[7]
  vesicular monoamine transporter function: binds and inhibits
[8]
  dopamine transporter function: binds and inhibits
[9]
  norepenephrin transporter function: binds and inhibits
[10]
  serotonin transporter function: binds and inhibits
[2]; mice, depending on the T1AM dose
  time for body temperature to return to normal: 4 to 6 h
[2]; mice, injection
  drop in body temperature: about 10 °C
[2]; mice
  time of body temperature nadir after injection: about 1 hour
[3]; rat working heart at 37° C., compound in perfusion buffer
  heart rate and systolic aortic pressure: large and immediate decreases
[11]
  reduction of infarct volume: 40%
[12]
  time for blood glucose to return to baseline: 3 to 4 h
  time of blood glucose peak after the injection: 1 h
[12]; injection, at peak
  increased blood glucose: 2-5 fold
[13]; Siberian hamsters, single dose T1AM (normal 0.90)
  respiratory quotient (RQ) value: approximately 0.7
[13]; Siberian hamsters
  time of urine ketone content peak post-injection: 16 h
[13]; in vivo
  time to complete RQ shift post-injection: about 4.5 hours
[13]; summer acclimatized Siberian hamsters
  persistence of 0.7 RQ after the T1AM injection: at least 24 h
[14]
  respiratory quotient (RQ) value: approximately 0.7

## N[C@@H](Cc1cc(I)c(Oc2ccc(O)cc2)c(I)c1)C(=O)O [T2, (2S)-2-amino-3-[4-(4-hydroxyphenoxy)-3,5-diiodophenyl]propanoic acid]
[15]
  effect on serum triglyceride levels: did not affect
[16]
  effect on serum triglyceride levels: did not affect
[17]
  effect on serum triglyceride levels: did not affect
[18]; C57, High Dose T2, Day 1, group average
  Body weight, Ave: 28.1 g
[18]; C57, High Dose T2, Day 1, individual animal
  Body weight: 29.6 (2×) and 24.9 and 26.7
[18]; C57, High Dose T2, Day 2, individual animal, in g (unit assumed)
  Body weight: 29.5 and 25.8 and 29.7
[18]; C57, High Dose T2, Day 3, individual animal, in g (unit assumed)
  Body weight: 25.1 and 29.9 and 27.2
[18]; C57, High Dose T2, Day 4, individual animal, in g (unit assumed)
  Body weight: 29.1 and 28.7
[18]; C57, High Dose T2, Day 5, individual animal, in g (unit assumed)
  Body weight: 29.1 and 28.5
[18]; C57, Low Dose T2, Day 2, individual animal
  Body weight: 24.9
[18]; C57, Low Dose T2, Day 4, individual animal
  Body weight: 25.1
[18]; C57, Low Dose T2, Day 6, individual animal
  Body weight: 29.9 and 24.8 and 28.7
[18]; C57, low and high dose T2
  effect on weight gain: did not affect
[19]; LDLr0, High Dose T2, Day 1, individual animal, in g (unit assumed)
  Body weight: 27.4
[19]; LDLr0, High Dose T2, Day 2, individual animal, in g (unit assumed)
  Body weight: 23.1 and 24.8
[19]; LDLr0, High Dose T2, Day 3, individual animal, in g (unit assumed)
  Body weight: 22.8
[19]; LDLr0, High Dose T2, Day 4, individual animal, in g (unit assumed)
  Body weight: 24.8
[19]; LDLr0, High Dose T2, Day 5, individual animal, in g (unit assumed)
  Body weight: 23.1
[19]; LDLr0, Low Dose T2, Day 6, individual animal
  Body weight: 23.1
[19]; LDLr knockout, low and high dose T2
  effect on weight gain: did not affect
[20]; High Dose T2, Day 1, individual animal, in g (unit assumed)
  Body weight: 31.4
[20]; High Dose T2, Day 2, individual animal, in g (unit assumed)
  Body weight: 31.0 and 29.1 and 29.9
[20]; High Dose T2, Day 4, individual animal, in g (unit assumed)
  Body weight: 29.0 and 27.9
[20]; Low Dose T2, Day 2, group average
  Body weight, Ave: 28.1
[20]; Low Dose T2, Day 2, individual animal
  Body weight: 282
[20]; Low Dose T2, Day 3, individual animal
  Body weight: 29.7 and 31.4
[20]; Low Dose T2, Day 4, individual animal
  Body weight: 27.4
[20]; Low Dose T2, Day 5, individual animal
  Body weight: 29.5
[20]; Low Dose T2, Day 6, individual animal
  Body weight: 29.1
[20]; Low Dose T2, Day 7, individual animal
  Body weight: 31.0 and 29.6 (2×) and 28.2
[20]; low and high dose T2
  effect on weight gain: did not affect
[21]; 1 Week High Dose T2
  Blood Sugar, individual animal: 74 and 120 and 92
[21]; 1 Week Low Dose T2
  Blood Sugar, individual animal: 190 and 120
[21]; all genetic groups (C57), high doses of T2, vs controls
  lower blood sugar levels, average: 45-50%
[22]; 1 Week High Dose T2
  Blood Sugar, individual animal: 87
[22]; 1 Week Low Dose T2
  Blood Sugar, individual animal: 54 and 79
[22]; all genetic groups (LDLr knockout), high doses of T2, vs controls
  lower blood sugar levels, average: 45-50%
[23]; 1 Week High Dose T2
  Blood Sugar, individual animal: 99 and 94 and 80
[23]; 1 Week Low Dose T2
  Blood Sugar, individual animal: 210
[23]; all genetic groups (LDLr+/−), high doses of T2, vs controls
  lower blood sugar levels, average: 45-50%
[24]
  effect on thyroid receptor homodimer formation: no effect
[25]
  less potent than T3 in decreasing TR β gene expression: 50%
[26]
  decrease body weight: 13%
  decrease hepatic fat mass: 50%
  increase hepatic fat oxidation: 42%
  lower cholesterol: 18%
  lower serum triglycerides: 52%
[27]
  potency relative to T3 in increasing growth hormone gene expression: 1/100

## N[C@@H](Cc1cc(I)c(Oc2ccc(O)c(I)c2)c(I)c1)C(=O)O [T3, (2S)-2-amino-3-[4-(4-hydroxy-3-iodophenoxy)-3,5-diiodophenyl]propanoic acid]
[28]
  affinity for TR α1, β1 and β2, fold greater than that of T2: 40-500 fold
